Data: PMC10819767, “An ADAM10 Exosite Inhibitor Is Efficacious in an In Vivo Collagen-Induced Arthritis Model” (Pharmaceuticals, 2024)
Read-outs that look alike come from different tables or passages of the source.

Tests used:
[1] = Pharmacokinetics in plasma and synovial fluid after oral gavage; format: in vivo, Sprague Dawley male rats; conditions: rat; for Cmax / AUC(0-inf) / AUC(0-t) / Tmax: male, Sprague Dawley; for Cmax: po, 10 mg/kg
Procedure: Pharmacokinetics of CID 3117694 in Sprague Dawley male rats. The CID 3117694 structure was confirmed using H1 NMR (Figure S1), and it was determined to be >95% pure via HPLC (Figure S2). To determine if CID 3117694 can be used in in vivo RA efficacy model studies, we conducted an in vivo pharmacokinetic (PK) study. CID 3117694 was formulated in 10% DMSO, 40% PEG400, 30% PG, and 20% H2O at 2 mg/mL and administered via oral gavage to Sprague Dawley male rats at 10 mg/kg. Blood and synovial fluid were collected at 15 min, 30 min, 1, 2, 4, 8, and 24 h and quantitated using LC/MS. PK parameters were calculated using WinNonLin 8.3.4 software.
Pharmacokinetics of CID 3117694. All animal studies were conducted in accordance with NSU IACUC guidelines. Study protocol #2021.04.DM2 was approved using NSU IACUC before the commencement of the studies. CID 3117694 was formulated in 10% DMSO, 40% PEG400, 30% PG, and 20% H2O at 2 mg/mL and administered via an intragastric (ig) gavage to six Sprague Dawley male rats at 10 mg/kg. The animals were anesthetized using isoflurane. Blood and synovial fluid were collected at 15 min, 30 min, 1 h, 2 h, 4 h, 8 h, and 24 h after the administration of CID 3117694. Synovial fluid (SF) was collected using a 23-gauge needle connected to a mini peristaltic pump via perfusion tubing. Sterile saline was infused at a constant rate of 100 μL/min^−1. After the infusion of 100 μL of the vehicle (sterile saline), the outflow tubing was connected to the 25-gauge needle to minimize pressure build-up within the joint space. The fluid was infused and withdrawn at a constant rate until a 250 μL basal sample was collected in a 1.5 mL centrifuge tube. Samples were immediately frozen at −20 °C. Blood was collected using a 25 G needle directly from the heart. The samples were prepared for LC-MS/MS analysis using the acetonitrile protein precipitation technique. Briefly, blank plasma and subject samples (plasma and SF samples) were retrieved from the deep freezer and allowed to thaw. The calibration curve standards (10 to 10,000 μg/mL of CID 3117694) and quality control samples were prepared using blank plasma. The thawed samples were vortexed to ensure the complete mixing of the contents. A total of 50 µL of each sample was transferred to the vials, and 200 µL of an Internal Standard (IS, telmisartan) mixed with acetonitrile was added to all the samples and vortexed. Samples were kept on the shaker for 5 min to ensure complete mixing of contents. The samples were centrifuged at 4000 rpm and 20 °C for 10 min, and the supernatant was transferred into auto-injector vials and loaded into the auto-sampler. A total of 5 µL was injected onto the API-4500 Q TRAP LC-MS/MS system. The samples were separated on a Phenomenex, Synergi C18 4.6 mm × 50 mm, 4 µm HPLC column using a 10 mM ammonium acetate + 0.1% Formic acid buffer as solvent A and 100% Acetonitrile as solvent B. PK parameters were quantitated using WinNonLin (Certara, Princeton, NJ, USA).

[2] = tested on: collagen-induced arthritis (CIA) model; test: CIA mouse model: clinical arthritis score and paw swelling; format: in vivo, C57 BL/6 mice; conditions: 10, 30, 50 mg/kg/day; days 1, 14, 21, 28
IL-10 = test: RA serum marker ELISA, IL-10, CIA mice; format: in vivo, C57 BL/6 mice
Procedure: The sample size for therapeutic evaluation was calculated using power analysis based on experimental data from similar studies. In a two-sided test and setting the α value at 0.05 and desired power at 0.95, the sample size turned out to be 5 per group. We also expected deaths during the experiments; therefore, we used the formula Nt = N/1-q, where Nt is the number of mice initially used, N is the number required at the end of the study, and q is the proportion of attrition, which is generally 10%. Thus, at the end of the study period, we expected to have data from at least 6 mice per group, which is enough to attain statistical significance if it exists. Data were analyzed using a one-way ANOVA followed by Dunnett’s test compared with the vehicle control. At the end of the study, the mice were anesthetized and sacrificed using CO2 euthanasia. The hind paws of the mice were subjected to a histopathological examination, and the serum was analyzed for CRP, TNF-α, IL-6, and IL-10, as described in the below sections.
RA serum marker analysis. Blood was collected from the tail vein, and 100 µL was used for the assays. All assays were conducted using the manufacturer’s instructions for the respective assay kits. The following assay kits were purchased: Mouse TNF-α GENLISA™ ELISA (Krishgen BioSystems cat#KB2145, Mumbai, India), Mouse IL-10 GENLISA™ ELISA (Krishgen BioSystems cat#KB2072), Mouse hsC-Reactive Protein, hs-CRP GENLISA™ ELISA (Krishgen BioSystems cat#KLM0318), Mouse IL-6 GENLISA™ ELISA (Krishgen BioSystems cat#KB2068).

caspase 8 = tested on: caspase 8; parameters: method as in PubChem database; conditions: ref PubChem database; cited from earlier work
[3] = Body weight and clinical signs of distress during CIA study; format: in vivo; conditions: 10, 30, 50 mg/kg oral for 28 days
Excerpt: Mice were weighed and observed every day, and notes were made on the signs of distress.

[4] = synovial fluid, 10 mg/kg oral gavage

In the case of `COc1cccc(C(=O)NNC(=O)C(=O)Nc2ccc(C)c(Cl)c2)c1` [CID 3117694], the Cmax ([1]; plasma, plasma, 10 mg/kg oral gavage, read-out: Cmax) is reported as 6640 ng/mL, the Cmax ([1]; plasma, plasma, 10 mg/kg oral gavage, read-out: Cmax, Concentration Plasma) is reported as 18.4 µM and the Cmax ([1]; plasma, plasma, 10 mg/kg oral, read-out: Cmax in plasma) is reported as 18.4 µM. It also gave a Cmax ([1]; synovial fluid, synovial fluid (SF), 10 mg/kg oral gavage, read-out: Cmax) of 307 ng/mL, a Cmax ([1]; synovial fluid, synovial fluid, 10 mg/kg oral gavage, read-out: Cmax, Concentration SF) of 0.849 µM and a Cmax ([1]; synovial fluid, synovial fluid, 10 mg/kg oral, read-out: Cmax in SF) of 0.849 µM. It also gave an AUC(0-inf) ([1]; plasma, 10 mg/kg oral gavage) of 173000 ng·h/mL, an AUC(0-t) ([1]; plasma, 10 mg/kg oral gavage) of 33100 ng·h/mL and a Tmax ([1]; plasma, 10 mg/kg oral gavage) of 1 h. For the same molecule, the AUC(0-inf) [1, 4] was 1120 ng·h/mL, the AUC(0-t) [1, 4] was 1100 ng·h/mL and the Tmax [1, 4] was 1 h. The “concentration at the 24 h time point” value ([1]; 10 mg/kg ig gavage, 24 h) was “below the limit of quantitation (LOQ)”, the “oral bioavailability (in words)” value ([1]; 10 mg/kg oral) was “orally bioavailable” and the “time present in the blood at a steady-state concentration” value ([1]; 10 mg/kg oral) was “at least 8 h”. The “paw swelling (in words)” value [2] was “time- and dose-dependently decrease paw swelling”, the “IL-10 blood level vs healthy control” value (IL-10; CID 3117694 50 mg/kg/day, indomethacin 2.5 mg/kg) was “decreased the markers to the level of the healthy control” and the “concentration of IL-10 in the blood of arthritic mice” value (IL-10; all tested doses (10, 30, 50 mg/kg), vs vehicle control) was “lowers”. The “effect on caspase 8 activity” value (caspase 8) was “does not affect”, the “body weight vs vehicle control” value [3] was “no significant differences in body weight” and the “clinical signs of distress” value [3] was “no clinical signs of distress”.
